From publication PMC10295546, “Synthesis, Cytotoxicity and Molecular Docking of New Hybrid Compounds by Combination of Curcumin with Oleanolic Acid” (Biomedicines, 2023)

How the values were obtained:
Format in all cases: cell-based, human
HeLaWT cells [1] = assay: MTT cell viability assay, HeLaWT
Protocol: (§1) The assay was performed as previously described.

MCF-12A cells = assay: MTT cell viability assay, non-tumorigenic MCF-12A
Protocol: as §1

MCF7 cells [2] = assay: MTT cell viability assay, MCF7; conditions: for IC50: MTT
Protocol: as §1

HT-29 cells [3] = assay: MTT cell viability assay, HT-29; conditions: for IC50: MTT
Protocol: as §1

HeLaWT cells [4] = assay: Cell cycle analysis (propidium iodide flow cytometry), HeLaWT
Protocol: (§2) To analyze the influence of the chosen compounds on the cell cycle, a flow cytometry analysis using propidium iodide was performed as previously described. The HT-29, MCF7 and HeLaWT cells (3 × 10^5 cells) were incubated overnight to reach sedimentation and then were treated with 0.5 and 1 × IC50 of KS1, KS2, KS5, KS6, KS7 and KS8, or Doxorubicin (positive control). Cell cycle analysis was performed after incubation for 24 h. Then, cells were harvested, washed twice with phosphate-buffered saline (PBS), and incubated with a solution of 1% saponin, 50 µg/mL propidium iodide and 10 mg/mL of RNase A (Sigma-Aldrich, Schnelldorf, Germany) in PBS for 1 h at 37 °C. DNA content was analyzed by flow cytometry at the […] wavelength of 488 nm using FACScan (Becton–Dickinson, Franklin Lakes, NJ, USA). The relative proportions of cells in the G1/G0, S and G2/M phases of the cell cycle were determined from the obtained data. Three separate experiments in triplicates were performed for each cell line.

HeLaWT cells [5] = assay: TUNEL assay, HeLaWT
Protocol: (§3) To determine the percentage of apoptotic cells, the TUNEL assay was performed as described elsewhere. TUNEL staining for the detection and quantification of apoptosis at the single-cell level was performed using an in situ cell death detection kit (Roche, Mannheim, Germany) according to the manufacturer’s protocol. Briefly, HT-29, HeLaWT and MCF7 cells (5 × 10^5/well) were seeded into 6-well plates and cultured overnight before exposure to different concentrations of tested compounds for 24 h. For TUNEL labeling, cells were harvested, fixed, permeabilized and labeled with the TUNEL reaction mixture (enzyme and label solutions) for 1 h at 37 °C in the dark. Negative controls were created by omitting the terminal deoxynucleotidyl enzyme and adding the same volume of the label solution. The cells were analyzed using a FACScan flow cytometer (Becton–Dickinson, Franklin Lakes, NJ, USA).

MCF7 cells [6] = assay: Cell cycle analysis (propidium iodide flow cytometry), MCF7; conditions: MCF7, both applied concentrations (0.5 × IC50 and 1 × IC50), 24 h
Protocol: as §2

HT-29 cells [7] = assay: Cell cycle analysis (propidium iodide flow cytometry), HT-29
Protocol: as §2

HT-29 cells [8] = assay: TUNEL assay, HT-29; conditions: HT-29, 1 × IC50, 24 h, non-statistically significant
Protocol: as §3

[9] = tested on: HeLaWT, HT-29, MCF7 and MCF-12A cells; assay: MTT cell viability assay, statement for all studied cells; conditions: for IC50: Homo sapiens, all studied cells, applied concentration range, time not specified
Protocol: as §1

[10] = Homo sapiens, MCF-12A, 24 h, MTT
[11] = Homo sapiens, MCF-12A, 48 h, MTT
[12] = Homo sapiens, MCF-12A, 72 h, MTT
[13] = Homo sapiens, non-cancerous MCF-12A cells, applied concentration range, time not specified

Row | SMILES | IC50 (HeLaWT cells [1]; Homo sapiens, 24 h) [µM] | IC50 (HeLaWT cells [1]; Homo sapiens, 48 h) [µM] | IC50 (HeLaWT cells [1]; Homo sapiens, 72 h) [µM] | IC50 (MCF-12A cells; [10]) [µM] | IC50 (MCF-12A cells; [11]) [µM] | IC50 (MCF-12A cells; [12]) [µM] | IC50 (MCF7 cells [2]; Homo sapiens, MCF7, 24 h) [µM] | IC50 (MCF7 cells [2]; Homo sapiens, MCF7, 48 h) [µM] | IC50 (MCF7 cells [2]; Homo sapiens, MCF7, 72 h) [µM] | IC50 (HT-29 cells [3]; Homo sapiens, HT-29, 24 h) [µM] | IC50 (HT-29 cells [3]; Homo sapiens, HT-29, 48 h) [µM] | IC50 (HT-29 cells [3]; Homo sapiens, HT-29, 72 h) [µM] | IC50 (MCF-12A cells; [13]) [µM] | IC50 [9] [µM] | also measured
1 | CC1(C)CCC2(C(=O)O)CCC3(C)C(=CCC4C5(C)CCC(OC(=O)CCC(=O)O)C(C)(C)C5CCC43C)C2C1 (stereo not drawn) [KS1, 4-{[(3 β )-28-hydroksy-28-oxoolean-12-en-3-yl]oxy}-4-oxobutanoic acid] | – | – | – | – | – | – | – | – | – | – | – | – | – | – | IC50 (HeLaWT cells [1]; 24 h): > 100 µM; IC50 (HeLaWT cells [1]; 48 h): > 100 µM; IC50 (HeLaWT cells [1]; 72 h): > 100 µM; cytotoxic activity (in words) (HeLaWT cells [1]; summary of Table 1): inactive; IC50 (MCF-12A cells; MCF-12A, 24 h, MTT): > 100 µM; IC50 (MCF-12A cells; MCF-12A, 48 h, MTT): 47.7 ± 2.1 µM; IC50 (MCF-12A cells; MCF-12A, 72 h, MTT): 42.1 ± 1.9 µM; IC50 (MCF7 cells [2]; MCF7, 24 h): > 100 µM; IC50 (MCF7 cells [2]; MCF7, 48 h): 34.4 ± 2.2 µM; IC50 (MCF7 cells [2]; MCF7, 72 h): 22.5 ± 0.9 µM; cytotoxic activity (in words) (MCF7 cells [2]; MCF7, MTT, summary of Table 1): quite active; IC50 (HT-29 cells [3]; HT-29, 24 h): > 100 µM; IC50 (HT-29 cells [3]; HT-29, 48 h): > 100 µM; IC50 (HT-29 cells [3]; HT-29, 72 h): > 100 µM; cytotoxic activity (in words) (HT-29 cells [3]; HT-29, MTT, summary of Table 1): inactive
2 | COc1cc(/C=C/C(=O)CC(=O)/C=C/c2ccc(O)c(OC)c2)ccc1O [KS2, curcumin] | 57.2 ± 2.2 | 28.7 ± 1.1 | 16.2 ± 0.65 | 75.6 ± 2.5 | 46.4 ± 2 | 42 ± 1.6 | 15.6 ± 0.8 | 14.6 ± 0.6 | 7.5 ± 0.4 | 25.2 ± 1.3 | 13.9 ± 0.7 | 11.1 ± 0.6 | – | – | effect on cell cycle phases (HeLaWT cells [4]; 0.5 × IC50, 24 h): a decrease in the G0/G1 phase, and an increase in the G2/M phase; effect on cell cycle phases (HeLaWT cells [4]; 1 × IC50, 24 h): a decrease in the number of cells in the G0/G1 phase; increase of apoptotic cells (cell cycle analysis) (HeLaWT cells [4]; 1 × IC50, 24 h): up to 10%; number of apoptotic cells (TUNEL) (HeLaWT cells [5]; 0.5 × IC50, 24 h): 30%; number of apoptotic cells (TUNEL) (HeLaWT cells [5]; 1 × IC50, 24 h): 80%; effect on cell cycle phases (MCF7 cells [6]): a decrease in the G0/G1 phase, and an increase in the G2/M phase; increase of apoptotic cells (cell cycle analysis) (HT-29 cells [7]; HT-29, 24 h, in comparison to control untreated cells): 7%; effect on cell cycle phases (HT-29 cells [7]; HT-29, both applied concentrations (0.5 × IC50 and 1 × IC50), 24 h): a decrease in the G0/G1 phase, and an increase in the G2/M phase; increase of apoptosis (TUNEL) (HT-29 cells [8]): 10%
3 | COC(=O)C12CCC(C)(C)CC1C1=CCC3C4(C)CCC(OC(=O)CCC(=O)Oc5ccc(/C=C/C(O)=C/C(=O)/C=C/c6ccc(O)c(OC)c6)cc5OC)C(C)(C)C4CCC3(C)C1(C)CC2 (stereo not shown) [KS3, Curcumin mono-oleanoyl hydrogen succinate methyl ester] | > 100 | > 100 | > 100 | > 100 | > 100 | > 100 | > 100 | > 100 | > 100 | > 100 | > 100 | > 100 | > 100 | > 100 | –
4 | COc1cc(/C=C/C(=O)/C=C(O)/C=C/c2ccc(OC(=O)CCC(=O)OC3CCC4(C)C(CCC5(C)C4CC=C4C6CC(C)(C)CCC6(C(=O)O)CCC45C)C3(C)C)c(OC)c2)ccc1O (stereo not shown) [KS4, Curcumin mono-oleanoyl hydrogen succinate] | > 100 | > 100 | > 100 | > 100 | > 100 | > 100 | > 100 | > 100 | > 100 | > 100 | > 100 | > 100 | > 100 | > 100 | –
5 | COc1cc(/C=C/c2cc(/C=C/c3ccc(OC(=O)CCC(=O)OC4CCC5(C)C(CCC6(C)C5CC=C5C7CC(C)(C)CCC7(C(=O)O)CCC56C)C4(C)C)c(OC)c3)on2)ccc1O (stereo not shown) [KS5, Curcumin isoxazole mono-oleanoyl hydrogen succinate] | 70.1 ± 3.5 | 51.2 ± 2.5 | 27.3 ± 1.4 | 83.2 ± 3.1 | 68.7 ± 2.4 | 49.9 ± 1.6 | 80.8 ± 4 | 45.6 ± 2.3 | 37.8 ± 1.9 | 29 ± 1.4 | 23.2 ± 1.2 | 21.5 ± 1.1 | – | – | –
6 | COc1cc(/C=C/c2cc(/C=C/c3ccc(OC(=O)CCC(=O)OC4CCC5(C)C(CCC6(C)C5CC=C5C7CC(C)(C)CCC7(C(=O)O)CCC56C)C4(C)C)c(OC)c3)[nH]n2)ccc1O (stereo not shown) [KS6, Curcumin pyrazole mono-oleanoyl hydrogen succinate] | 77.1 ± 3.8 | 45 ± 2.3 | 25.9 ± 1.3 | > 100 | 54.3 ± 2.7 | 44.6 ± 1.9 | 69.1 ± 3.4 | 25.9 ± 1.3 | 20.2 ± 1 | 94.4 ± 4.7 | 51.9 ± 2.6 | 26 ± 1.3 | – | – | –
7 | COC(=O)C12CCC(C)(C)CC1C1=CCC3C4(C)CCC(OC(=O)CCC(=O)Oc5ccc(/C=C/c6cc(/C=C/c7ccc(O)c(OC)c7)no6)cc5OC)C(C)(C)C4CCC3(C)C1(C)CC2 (stereo not shown) [KS7, Curcumin isoxazole mono-oleanoyl hydrogen succinate methyl ester] | > 100 | > 100 | > 100 | > 100 | > 100 | > 100 | > 100 | > 100 | > 100 | > 100 | > 100 | > 100 | > 100 | > 100 | cytotoxic activity (in words) ([9]; all cell lines, MTT, summary of Table 1): inactive
8 | COC(=O)C12CCC(C)(C)CC1C1=CCC3C4(C)CCC(OC(=O)CCC(=O)Oc5ccc(/C=C/c6cc(/C=C/c7ccc(O)c(OC)c7)n[nH]6)cc5OC)C(C)(C)C4CCC3(C)C1(C)CC2 (stereo not shown) [KS8, Curcumin pyrazole mono-oleanoyl hydrogen succinate methyl ester] | 53.4 ± 2.7 | 36.9 ± 1.8 | 25.6 ± 1.2 | 62.7 ± 3.1 | 43.4 ± 2.2 | 42.3 ± 2.5 | 44.3 ± 2.2 | 33.2 ± 1.7 | 29.9 ± 1.5 | 20.6 ± 1 | 17.9 ± 0.9 | 17.3 ± 0.9 | – | – | –
